Measured values as given in paper PMC11369887 (RSC Advances, 2024).
Read-outs that look alike come from different tables or passages of the source.

Legend:
[1] = system: leukemia (L-SR) cell line; assay: MTT cytotoxicity assay, L-SR; conditions: read-out: Cytotoxicity IC50 L-SR, 48 h
Method: (§2) The newly synthesized compounds were evaluated for their in vitro growth inhibition of three human tumor cell lines representing different tumor types, namely, breast adenocarcinoma (MCF-7), liver hepatocellular carcinoma (Hep3B) and leukemia-SR. […] The breast tumor cell line (MCF-7), hepatic tumor cell line (Hep3B) and leukemia-SR cell line were obtained from American Type Culture Collection. The cells were cultured using Dulbecco's modified Eagle's medium (DMEM) (Invitrogen/Life Technologies) supplemented with 10% fetal bovine serum (FBS) (Hyclone), 10 μg mL^−1 of insulin (Sigma), and 1% penicillin–streptomycin. […] For 24 hours before to the MTT experiment, plate cells (densities of 1.2–1.8 × 10 000 cells per well) were layered in a 96-well plate containing 100 μL of the tested chemical per well and 100 μL of full growth media.
(§3) The culture medium was transferred to a centrifuge tube. […] Then 2.0 to 3.0 mL of Trypsin EDTA solution was added to the flask, and the cells were observed using an inverted microscope until the cell layer became dispersed (usually within 5–15 min). After that, 6.0 to 8.0 mL of complete growth medium was added and the cells were aspirated by gently pipetting. The cell suspension was transferred to the centrifuge tube with the medium and cells from step 1 and centrifuged at approximately 125 g for 5–10 min. The supernatant was discarded. The cell pellet was re-suspended in a fresh growth medium. Appropriate aliquots of the cell suspension were added to new culture vessels.
(§4) For the best results, the cells in the log phase of growth should be employed and the final cell number should not exceed 10^6 cells per cm^2. Each test should include a blank containing a complete medium without cells. Cultures from the incubator were transferred into a laminar flow hood or other sterile work area. […] Reconstituted MTT was added in an amount equal to 10% of the culture medium volume. Cultures were returned to the incubator for 2–4 h depending on the cell type and maximum cell density. An incubation period of 2 h is generally adequate but may be lengthened for low cell densities or cells with lower metabolic activity. The incubation times should be consistent when making comparisons. […] Occasionally, especially in dense cultures, pipetting up and down may be required to completely dissolve the MTT formazan crystals. The absorbance was spectrophotometrically measured at a wavelength of 570 nm. The background absorbance of multiwell plates was measured at 690 nm and subtracted from the 450 nm measurement. Tests performed in multiwell plates might be read using an appropriate type of plate reader or the contents of individual wells might be transferred to appropriate size cuvettes for spectrophotometric measurement.

[2] = system: human breast cancer (MCF-7) cell line; assay: MTT cytotoxicity assay, MCF-7; conditions: read-out: Cytotoxicity IC50 MCF-7
Method: as §2, §3, §4

[3] = system: human liver cancer (Hep3B) cell line; assay: MTT cytotoxicity assay, Hep3B; conditions: read-out: Cytotoxicity IC50 Hep3B, 48 h
Method: as §2, §3, §4

[4] = biological target: T1, human DNA topoisomerase II beta (Topo2β) (Homo sapiens, UniProt Q02880); assay: Topo2β polymerase inhibition assay (ELISA), Hep3B; format: cell-based; design: concentration or dose not given beside the values; conditions: against Hep3B cell line
T1 sequence (Q02880 whole entry): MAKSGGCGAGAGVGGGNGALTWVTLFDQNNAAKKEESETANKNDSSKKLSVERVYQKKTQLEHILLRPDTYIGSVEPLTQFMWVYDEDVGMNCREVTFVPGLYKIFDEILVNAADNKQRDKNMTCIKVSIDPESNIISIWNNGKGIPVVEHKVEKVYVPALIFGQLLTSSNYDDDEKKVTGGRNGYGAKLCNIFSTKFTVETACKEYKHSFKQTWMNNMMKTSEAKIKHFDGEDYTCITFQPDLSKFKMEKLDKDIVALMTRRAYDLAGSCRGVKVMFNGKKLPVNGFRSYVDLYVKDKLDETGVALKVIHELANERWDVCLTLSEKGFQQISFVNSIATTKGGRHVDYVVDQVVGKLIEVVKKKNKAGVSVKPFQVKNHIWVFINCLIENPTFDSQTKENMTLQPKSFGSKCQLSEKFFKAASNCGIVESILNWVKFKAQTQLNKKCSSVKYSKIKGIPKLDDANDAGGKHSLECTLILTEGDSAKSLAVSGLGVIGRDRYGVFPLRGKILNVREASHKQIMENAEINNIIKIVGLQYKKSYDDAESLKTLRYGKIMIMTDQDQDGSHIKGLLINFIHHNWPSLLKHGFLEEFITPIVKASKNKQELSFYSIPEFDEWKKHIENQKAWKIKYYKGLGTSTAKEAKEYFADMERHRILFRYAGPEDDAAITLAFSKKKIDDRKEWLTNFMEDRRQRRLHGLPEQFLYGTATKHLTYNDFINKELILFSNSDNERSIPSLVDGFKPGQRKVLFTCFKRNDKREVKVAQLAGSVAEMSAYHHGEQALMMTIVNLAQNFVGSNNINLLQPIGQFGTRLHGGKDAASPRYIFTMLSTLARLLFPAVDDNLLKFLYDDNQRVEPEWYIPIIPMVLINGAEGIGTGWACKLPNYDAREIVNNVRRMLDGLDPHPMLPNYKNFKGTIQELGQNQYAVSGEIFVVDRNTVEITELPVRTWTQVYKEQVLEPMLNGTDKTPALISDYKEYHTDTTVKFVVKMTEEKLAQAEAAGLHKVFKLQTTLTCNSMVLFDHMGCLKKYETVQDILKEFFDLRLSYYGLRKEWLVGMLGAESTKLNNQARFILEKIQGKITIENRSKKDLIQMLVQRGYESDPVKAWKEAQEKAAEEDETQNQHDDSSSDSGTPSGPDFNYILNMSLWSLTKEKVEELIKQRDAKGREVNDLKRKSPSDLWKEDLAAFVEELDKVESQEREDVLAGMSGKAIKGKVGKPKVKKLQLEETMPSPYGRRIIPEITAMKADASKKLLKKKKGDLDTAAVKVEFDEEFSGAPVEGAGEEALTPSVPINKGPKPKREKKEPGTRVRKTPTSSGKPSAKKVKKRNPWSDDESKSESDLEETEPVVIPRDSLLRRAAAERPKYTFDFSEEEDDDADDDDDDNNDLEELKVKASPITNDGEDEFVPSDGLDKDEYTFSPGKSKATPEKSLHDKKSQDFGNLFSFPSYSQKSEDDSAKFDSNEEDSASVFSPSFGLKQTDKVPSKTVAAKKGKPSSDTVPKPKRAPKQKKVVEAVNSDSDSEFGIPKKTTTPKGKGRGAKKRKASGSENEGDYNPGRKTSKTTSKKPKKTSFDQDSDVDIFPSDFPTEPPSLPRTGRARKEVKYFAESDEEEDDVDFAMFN
Method: (§1) This assay was employed to predict the inhibitory effects of novel compounds on Topo2β. […] The melting points were determined using a Stuart apparatus, and the values given are uncorrected. IR spectra were recorded using a Shimadzu IR 4000s spectrophotometer (KBr, cm^−1) at the College of Pharmaceutical Sciences and Drug Manufacturing, Misr University for Science and Technology, Egypt. ^1H NMR spectra were recorded using a Bruker 400 MHz (Bruker Corp., Billerica, MA, USA) spectrophotometer, Faculty of Pharmacy, Cairo University, Cairo, Egypt and the Centre of Drug Discovery Research & Development, Faculty of Pharmacy, Ain shams University, and a Jeol 500 MHz spectrophotometer at the National Research Center. Chemical shifts were recorded in ppm on a δ scale, coupling constants (J) were given in Hz and peak multiplicities are designed as follows: s, singlet; d, doublet; t, triplet; m, multiplet. ^13C NMR spectra were recorded using a Bruker 100 MHz spectrophotometer, Faculty of Pharmacy, Cairo University and the Centre of Drug Discovery Research & Development, Faculty of Pharmacy, Ain shams University, and a Jeol 500 MHz spectrophotometer at the National Research Center. Chemical shifts were recorded in ppm on a δ scale. Microanalyses for C, H, and N were carried out at the Regional Center for Mycology and Biotechnology, Faculty of Pharmacy, Al-Azhar University. C, H, and N analysis values were accepted within the range of ± 0.4 of the calculated percentages. […] The used eluting system was methanol : hexane with a ratio of 9.5/0.5 respectively. Scientific microwave MAS-II was used under 300 W microwave irradiation, operating at 80 °C. The evaluation of the cytotoxic activity was performed at VACSERA, Giza, Egypt, using MCF-7, Hep3B and leukemia SR cell lines. Enzyme assay, cell cycle analysis, apoptosis and caspase-3 assay were carried out at VACSERA, Giza, Egypt using an SEB870Hu 96 Tests Enzyme-linked Immunosorbent Assay Kit for Topoisomerase II Beta.
This assay employs a quantitative sandwich enzyme immunoassay technique. […] Antibody specific for Topo2β was pre-coated onto a microplate. Standards and samples were pipetted into the wells and any Topo2β present was bound by the immobilized antibody. After removing any unbound substances, a biotin-conjugated antibody specific for Topo2β was added to the wells. After washing, avidin-conjugated Horseradish Peroxidase (HP) was added to the wells. Following washing to remove any unbound avidin–enzyme reagent, a substrate solution was added to the wells and color develops in proportion to the amount of Topo2β bound in the initial step. The color development was stopped, and the intensity of the color was measured. […] The sensitivity of this assay or lower limit of detection (LLD) is defined as the lowest protein concentration that could be differentiated from zero. The mean OD value of 20 replicates of the zero standard was determined and added to their three standard deviations.[64]

in vitro = conditions: human, THLE2 normal liver cells
Method: The following normal cell lines were selected: normal breast MCF-10a, normal liver THLE2 and normal lymphocyte PCS-800-011. […] Moreover, the toxic effect of representative target compounds was evaluated on normal breast (MCF10a), normal liver (THLE2) and normal lymphocyte (PCS-800-011) cell lines using an MTT assay. […] The cells were cultured using Dulbecco's modified Eagle's medium (DMEM) (Invitrogen/Life Technologies) supplemented with 10% fetal bovine serum (FBS) (Hyclone), 10 μg mL^−1 of insulin (Sigma), and 1% penicillin–streptomycin. All chemicals and reagents were purchased from Sigma-Aldrich or Invitrogen. For 24 hours before to the MTT experiment, plate cells (densities of 1.2–1.8 × 10 000 cells per well) were layered in a 96-well plate containing 100 μL of the tested chemical per well and 100 μL of full growth media.
as §3, §4

[5] = biological target: T1, human DNA topoisomerase II beta (Topo2β); assay: Topo2β polymerase inhibition assay (ELISA), L-SR; format: cell-based; design: endogenous in cells; host or cells: MCF-7 (A4), Hep3B (A5), L-SR (A6) human cancer cell lines; conditions: against L-SR cell line
Method: as §1
This assay employs a quantitative sandwich enzyme immunoassay technique. […] Antibody specific for Topo2β was pre-coated onto a microplate. Standards and samples were pipetted into the wells and any Topo2β present was bound by the immobilized antibody. After removing any unbound substances, a biotin-conjugated antibody specific for Topo2β was added to the wells. After washing, avidin-conjugated Horseradish Peroxidase (HP) was added to the wells. […] The color development was stopped, and the intensity of the color was measured. […] The mean OD value of 20 replicates of the zero standard was determined and added to their three standard deviations.[64]

[6] = MCF-7 cell line, MTT assay, 48 h

melting point	Topo2β% inhibition [4]	IC50 at 48 h (in vitro)	Topo2β% inhibition [5]	Compound	IC50 ([1]; L-SR cell line, MTT assay)	IC50 [2, 6]	IC50 ([3]; Hep3B cell line, MTT assay)	IC50 ([1]; Homo sapiens)	IC50 ([2]; Homo sapiens, MCF7, 48 h)	IC50 ([3]; Homo sapiens, Hep3B)
				N-(4-Chlorobenzylidene)-2-[(9-fluoro-3-methyl-10-(4-methylpiperazin-1-yl)-7-oxo-2,3-dihydro-7H-[1,4]oxazino[2,3,4-ij]quinoline-6-carbonyl)]hydrazine-1-carbothioamide [Compound 11a]	19.9 ± 1.2 µM	54.5 ± 2.52 µM	80.2 ± 3.71 µM			
235 to 237 °C				CC1COc2c(N3CCN(C)CC3)c(F)cc3c(=O)c(C(=O)N4CCOCC4)cn1c23 (centres unmarked) [Compound 13b, 9-Fluoro-3-methyl-10-(4-methylpiperazin-1-yl)-6-((morpholin-4-yl)carbonyl)-2,3-dihydro-7H-[1,4]oxazino[2,3,4-ij]quinolin-7-one]				18.3 ± 1.11 µM	26.8 ± 1.24 µM	11.2 ± 0.52 µM
138 to 140 °C				CC1COc2c(N3CCN(C)CC3)c(F)cc3c(=O)c(C(=O)NN4C(=O)c5ccccc5C4=O)cn1c23 (centres unmarked) [Compound 9, 9-Fluoro-3-methyl-10-(4-methylpiperazin-1-yl)-7-oxo-N-(1,3-dioxoisoindolin-2-yl)-2,3-dihydro-7H-[1,4]oxazino[2,3,4-ij]quinoline-6-carboxamide]				23.4 ± 1.41 µM	19.3 ± 0.9 µM	42.2 ± 1.96 µM
> 300 °C				CC1COc2c(N3CCN(C)CC3)c(F)cc3c(=O)c(C(=O)NNC(N)=S)cn1c23 (centres unmarked) [Compound 10, 2-[(9-Fluoro-3-methyl-10-(4-methylpiperazin-1-yl)-7-oxo-2,3-dihydro-7H-[1,4]oxazino[2,3,4-ij]quinoline-6-carbonyl)]hydrazin-1-carbothioamide]				66 ± 3.98 µM	95.4 ± 4.42 µM	37.9 ± 1.76 µM
239 to 241 °C	70.93%	24 ± 1.35 µM		CC1COc2c(N3CCN(C)CC3)c(F)cc3c(=O)c(C(=O)N4CCN(C)CC4)cn1c23 (centres unmarked) [Compound 13c, 9-Fluoro-3-methyl-10-(4-methylpiperazin-1-yl)-6-((4-methylpiperazin-1-yl)carbonyl)-2,3-dihydro-7H-[1,4]oxazino[2,3,4-ij]quinolin-7-one]				13.6 ± 0.82 µM	7.26 ± 0.34 µM	1.04 ± 0.05 µM
260 to 262 °C				CC1COc2c(N3CCN(C)CC3)c(F)cc3c(=O)c(C(=O)NN=Cc4ccc(Cl)cc4)cn1c23 (centres unmarked) [Compound 3a, N′-(4-Chlorobenzylidene)-9-fluoro-3-methyl-10-(4-methylpiperazin-1-yl)-7-oxo-2,3-dihydro-7H-[1,4]oxazino[2,3,4-ij]quinoline-6-carbohydrazide]				2.75 ± 0.07 µM	24.8 ± 1.61 µM	24.7 ± 0.81 µM
				N-(1-(3,4-Dimethoxyphenyl)ethylidene)-2-[(9-fluoro-3-methyl-10-(4-methylpiperazin-1-yl)-7-oxo-2,3-dihydro-7H-[1,4]oxazino[2,3,4-ij]quinoline-6-carbonyl)]hydrazine-1-carbothioamide [Compound 12b]	34.2 ± 2.06 µM	5.21 ± 0.24 µM	17.6 ± 0.81 µM			
246 to 248 °C				CC1COc2c(N3CCN(C)CC3)c(F)cc3c(=O)c(C(=O)N4CCN(c5ccccc5)CC4)cn1c23 (centres unmarked) [Compound 13d, 9-Fluoro-3-methyl-10-(4-methylpiperazin-1-yl)-6-((4-phenylpiperazin-1-yl)carbonyl)-2,3-dihydro-7H-[1,4]oxazino[2,3,4-ij]quinolin-7-one]				15.1 ± 0.91 µM	9.59 ± 0.44 µM	24.5 ± 1.14 µM
				2-[(9-Fluoro-3-methyl-10-(4-methylpiperazin-1-yl)-7-oxo-2,3-dihydro-7H-[1,4]oxazino[2,3,4-ij]quinoline-6-carbonyl)]-N-(1-(4-methoxyphenyl)ethylidene)hydrazine-1-carbothioamide [Compound 12a]	23.8 ± 1.43 µM	45.4 ± 2.1 µM	23.6 ± 1.09 µM			
				2-[(9-Fluoro-3-methyl-10-(4-methylpiperazin-1-yl)-7-oxo-2,3-dihydro-7H-[1,4]oxazino[2,3,4-ij]quinoline-6-carbonyl)]N-(4-methoxybenzylidene)hydrazine-1-carbothioamide [Compound 11b]	40.3 ± 2.43 µM	15.5 ± 0.72 µM	14.6 ± 0.67 µM			
> 300 °C				CC1COc2c(N3CCN(C)CC3)c(F)cc3c(=O)c(C(=O)NN=C4C(=O)Nc5ccc(Br)cc54)cn1c23 (centres unmarked) [Compound 4b, N′-(5-Bromo-2-oxoindolin-3-ylidene)-9-fluoro-3-methyl-10-(4-methylpiperazin-1-yl)-7-oxo-2,3-dihydro-7H-[1,4]oxazino[2,3,4-ij]quinoline-6-carbohydrazide]				10.9 ± 0.66 µM	5.59 ± 0.26 µM	8.79 ± 0.41 µM
> 300 °C				CC1COc2c(N3CCN(C)CC3)c(F)cc3c(=O)c(C(=O)NN=C4C(=O)Nc5ccc(Cl)cc54)cn1c23 (centres unmarked) [Compound 4c, N′-(5-Chloro-2-oxoindolin-3-ylidene)-9-fluoro-3-methyl-10-(4 methylpiperazin-1-yl)-7-oxo-2,3-dihydro-7H-[1,4]oxazino[2,3,4-ij]quinoline-6-carbohydrazide]				4.32 ± 0.26 µM	15.8 ± 0.76 µM	36.3 ± 1.68 µM
238 to 240 °C	68.77%	29.9 ± 1.68 µM	69.38%	CC1COc2c(N3CCN(C)CC3)c(F)cc3c(=O)c(C(=O)N4CCCCC4)cn1c23 (centres unmarked) [Compound 13a, 9-Fluoro-3-methyl-10-(4-methylpiperazin-1-yl)-6-((piperidin-1-yl)carbonyl)-2,3-dihydro-7H-[1,4]oxazino[2,3,4-ij]quinolin-7-one]				3.12 ± 0.19 µM	12.1 ± 0.56 µM	3.46 ± 0.16 µM
> 300 °C				CC1COc2c(N3CCN(C)CC3)c(F)cc3c(=O)c(C(=O)NN=C4C(=O)Nc5ccccc54)cn1c23 (centres unmarked) [Compound 4a, 9-Fluoro-3-methyl-10-(4-methylpiperazin-1-yl)-7-oxo-N′-(2-oxoindolin-3-ylidene)-2,3-dihydro-7H-[1,4]oxazino[2,3,4-ij]quinoline-6-carbohydrazide]				49.6 ± 2.99 µM	39.1 ± 1.81 µM	18.7 ± 0.87 µM
266 to 268 °C				CC1COc2c(N3CCN(C)CC3)c(F)cc3c(=O)c(C(=O)NN=Cc4ccc(F)cc4)cn1c23 (centres unmarked) [Compound 3b, 9-Fluoro-N′-(4-fluorobenzylidene)-3-methyl-10-(4-methylpiperazin-1-yl)-7-oxo-2,3-dihydro-7H-[1,4]oxazino[2,3,4-ij]quinoline-6-carbohydrazide]				5.64 ± 0.27 µM	63 ± 2.8 µM	12 ± 0.39 µM
228 to 230 °C				CC1COc2c(N3CCN(C)CC3)c(F)cc3c(=O)c(C(=O)N4NC(=O)CC4=O)cn1c23 (centres unmarked) [Compound 8, 9-Fluoro-6-((3,5-dioxopyrazolidine-1-yl)carbonyl)-3-methyl-10-(4-methylpiperazin-1-yl)-2,3-dihydro-7H-[1,4]oxazino[2,3,4-ij]quinolin-7-one]				5.49 ± 0.33 µM	3.51 ± 0.16 µM	7.69 ± 0.36 µM
